Target: T1, human capsaicin receptor (Homo sapiens, UniProt Q8NER1)
T1 construct: A cDNA encoding full length human capsaicin receptor recited in U.S. Pat. No. 6,482,611 was subcloned in the plasmid pBK-CMV; expressed in transfected cells
Assay: Calcium mobilization assay (Example 6)
Assay type: cell-based
Conditions: concentration required to provide a 50% decrease in the fluorescence response of cells exposed to one IC50 of capsaicin
Protocol: Human embryonic kidney (HEK293) cells were transfected with the pBK-CMV expression construct encoding the full length human capsaicin receptor using standard methods. The transfected cells were selected for two weeks in media containing G418 (400 μg/ml) to obtain a pool of stably transfected cells. Independent clones were isolated from this pool by limiting dilution to obtain clonal stable cell lines for use in subsequent experiments.
Cells transfected with expression plasmids (as described in Example 4) and thereby expressing human capsaicin receptor are seeded and grown to 70-90% confluency in FALCON black-walled, clear-bottomed 96-well plates (#3904, BECTON-DICKINSON, Franklin Lakes, N.J.). The culture medium is emptied from the 96 well plates and FLUO-3 AM calcium sensitive dye (Molecular Probes, Eugene, Oreg.) is added to each well (dye solution: 1 mg FLUO-3 AM, 440 μL DMSO and 440 μl 20% pluronic acid in DMSO, diluted 1:250 in Krebs-Ringer HEPES (KRH) buffer (25 mM HEPES, 5 mM KCl, 0.96 mM NaH2PO4, 1 mM MgSO4, 2 mM CaCl2, 5 mM glucose, 1 mM probenecid, pH 7.4), 50 μl diluted solution per well). Plates are covered with aluminum foil and incubated at 37° C. for 1-2 hours in an environment containing 5% CO2. After the incubation, the dye is emptied from the plates, and the cells are washed once with KRH buffer, and, resuspended in KRH buffer.
Agonist (e.g., olvanil, capsaicin, or RTX)-induced calcium mobilization is monitored using either FLUOROSKAN ASCENT (Labsystems, Franklin, Mass.) or FLIPR (fluorometric imaging plate reader system, Molecular Devices, Sunnyvale, Calif.) instruments. Varying concentrations of the antagonists ruthenium red or capsazepine (RBI; Natick, Mass.) are added to cells concurrently with agonist (e.g., 25-50 nM capsaicin). For agonist-induced calcium responses, data obtained between 30 and 60 seconds after agonist application are used to generate the IC50 values. KALEIDAGRAPH software (Synergy Software, Reading, Pa.) is used to fit the data to the equation: y=a*(1/(1+(b/x)^c)) to determine the IC50 for the response. In this equation, y is the maximum fluorescence signal, x is the concentration of the agonist or antagonist, a is the Emax, b corresponds to the IC50 value and c is the Hill coefficient.
To measure the ability of a test compound to antagonize (inhibit) the response of cells expressing capsaicin receptors to capsaicin or other vanilloid agonist, the IC50 of capsaicin is first determined. An additional 20 μl of KRH buffer and 1 μl DMSO is added to each well of cells, prepared as described above. 100 μl capsaicin in KRH buffer is automatically transferred by the FLIPR instrument to each well. An 8-point concentration response curve, with final capsaicin concentrations of 1 nM to 3 μM, is used to determine capsaicin IC50.
Test compounds are dissolved in DMSO, diluted in 20 μl KRH buffer so that the final concentration of test compounds in the assay well is between 1 μM and 5 μM, and added to cells prepared as described above. The 96 well plates containing prepared cells and test compounds are incubated in the dark, at room temperature for 0.5 to 6 hours. It is important that the incubation not continue beyond 6 hours. Just prior to determining the fluorescence response, 100 μl capsaicin in KRH buffer at twice the IC50 concentration determined from the concentration response curve is automatically added by the FLIPR instrument to each well of the 96 well plate for a final sample volume of 200 μl and a final capsaicin concentration equal to the IC50. The final concentration of test compounds in the assay wells is between 1 μM and 5 μM. […] Antagonists of the capsaicin receptor decrease this response by at least about 20%, preferably by at least about 50%, and most preferably by at least 80% as compared to matched control. The concentration of antagonist required to provide a 50% decrease is the IC50 for the antagonist, and is preferably below 1 micromolar, 100 nanomolar, 10 nanomolar or 1 nanomolar. […]

T1 sequence (Q8NER1 whole entry): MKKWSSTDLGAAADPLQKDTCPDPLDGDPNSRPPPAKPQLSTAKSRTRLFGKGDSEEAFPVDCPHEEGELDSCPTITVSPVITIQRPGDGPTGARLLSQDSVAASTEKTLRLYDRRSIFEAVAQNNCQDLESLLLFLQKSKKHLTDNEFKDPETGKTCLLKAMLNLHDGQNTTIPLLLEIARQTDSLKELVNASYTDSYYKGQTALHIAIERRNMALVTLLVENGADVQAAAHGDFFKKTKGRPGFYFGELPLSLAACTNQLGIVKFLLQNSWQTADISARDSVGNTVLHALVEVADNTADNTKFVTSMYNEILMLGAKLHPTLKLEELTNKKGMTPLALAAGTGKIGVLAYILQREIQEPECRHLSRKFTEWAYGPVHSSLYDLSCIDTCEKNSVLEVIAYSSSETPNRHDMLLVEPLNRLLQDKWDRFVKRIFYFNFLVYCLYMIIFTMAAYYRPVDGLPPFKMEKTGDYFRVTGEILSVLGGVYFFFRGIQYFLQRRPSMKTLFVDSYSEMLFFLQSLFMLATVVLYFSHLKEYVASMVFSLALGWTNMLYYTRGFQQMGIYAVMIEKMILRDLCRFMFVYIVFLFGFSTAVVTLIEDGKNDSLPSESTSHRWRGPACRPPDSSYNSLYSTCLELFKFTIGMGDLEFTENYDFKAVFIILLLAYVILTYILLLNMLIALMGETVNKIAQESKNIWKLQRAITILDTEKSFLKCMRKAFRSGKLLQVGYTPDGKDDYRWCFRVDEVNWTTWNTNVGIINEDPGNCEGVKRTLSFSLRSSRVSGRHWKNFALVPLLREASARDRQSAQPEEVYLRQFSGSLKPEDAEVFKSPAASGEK

IC50, ≤ 1000 nM:
CCOCc1cc(Nc2ccc(C(F)(F)F)cc2)c2ccc(-c3ncccc3C(F)(F)F)nc2n1 [Compound 40, 2-(ethoxymethyl)-N-[4-(trifluoromethyl)phenyl]-7-[3-(trifluoromethyl)pyridin-2-yl]-1,8-naphthyridin-4-amine]
CC(C)OCc1cc(Nc2ccc(C(F)(F)F)cc2)c2ccc(-c3ncccc3C(F)(F)F)nc2n1 [Compound 41, 2-(isopropoxymethyl)-N-[4-(trifluoromethyl)phenyl]-7-[3-(trifluoromethyl)pyridin-2-yl]-1,8-naphthyridin-4-amine]
CC(C)CCOCc1cc(Nc2ccc(C(F)(F)F)cc2)c2ccc(-c3ncccc3C(F)(F)F)nc2n1 [Compound 42, 2-[(isopentyloxy)methyl]-N-[4-(trifluoromethyl)phenyl]-7-[3-(trifluoromethyl)pyridin-2-yl]-1,8-naphthyridin-4-amine]
CCCOCc1cc(Nc2ccc(C(F)(F)F)cc2)c2ccc(-c3ncccc3C(F)(F)F)nc2n1 [Compound 43, 2-(propoxymethyl)-N-[4-(trifluoromethyl)phenyl]-7-[3-(trifluoromethyl)pyridin-2-yl]-1,8-naphthyridin-4-amine]
CC(C)COCc1cc(Nc2ccc(C(F)(F)F)cn2)c2ccc(-c3ncccc3C(F)(F)F)nc2n1 [Compound 44, 2-(isobutoxymethyl)-7-[3-(trifluoromethyl)pyridin-2-yl]-N-[5-(trifluoromethyl)pyridin-2-yl]-1,8-naphthyridin-4-amine]
CCOc1cc(Nc2ccc(C(F)(F)F)cn2)c2ccc(-c3ncccc3C(F)(F)F)nc2n1 [Compound 45, 2-ethoxy-7-[3-(trifluoromethyl)pyridin-2-yl]-N-[5-(trifluoromethyl)pyridin-2-yl]-1,8-naphthyridin-4-amine]
CCOc1cc(Nc2ccc(S(=O)(=O)C(F)(F)F)cc2)c2ccc(-c3ncccc3C(F)(F)F)nc2n1 [Compound 46, 2-ethoxy-7-[3-(trifluoromethyl)pyridin-2-yl]-N-{4-[(trifluoromethyl)sulfonyl]phenyl}-1,8-naphthyridin-4-amine]
COc1cc(Nc2ccc(C(C)(C)C)cc2)c2ccc(-c3ncccc3C(F)(F)F)nc2n1 [Compound 47, N-(4-tert-butylphenyl)-2-methoxy-7-[3-(trifluoromethyl)pyridin-2-yl]-1,8-naphthyridin-4-amine]
Cc1cc(Nc2ccc(C(F)(F)F)cc2)c2ccc(-c3ncccc3C(F)(F)F)nc2n1 [Compound 48, 2-methyl-N-[4-(trifluoromethyl)phenyl]-7-[3-(trifluoromethyl)pyridin-2-yl]-1,8-naphthyridin-4-amine]
CC1CCCN1Cc1cc(Nc2ccc(C(F)(F)F)cc2)c2ccc(-c3ncccc3C(F)(F)F)nc2n1 (stereo not drawn) [Compound 49, 2-[(2-methylpyrrolidin-1-yl)methyl]-N-[4-(trifluoromethyl)phenyl]-7-[3-(trifluoromethyl)pyridin-2-yl]-1,8-naphthyridin-4-amine]
COCCN(CCOC)Cc1cc(Nc2ccc(C(F)(F)F)cc2)c2ccc(-c3ncccc3C(F)(F)F)nc2n1 [Compound 50, 2-{[bis(2-methoxyethyl)amino]methyl}-N-[4-(trifluoromethyl)phenyl]-7-[3-(trifluoromethyl)pyridin-2-yl]-1,8-naphthyridin-4-amine]
COCc1cc(Nc2ccc(C(F)(F)F)cc2)c2ccc(-c3ncccc3Cl)nc2n1 [Compound 51, 7-(3-chloropyridin-2-yl)-2-(methoxymethyl)-N-[4-(trifluoromethyl)phenyl]-1,8-naphthyridin-4-amine]
CC(C)COCc1cc(Nc2ccc(C(F)(F)F)cc2)c2ccc(-c3ncccc3Cl)nc2n1 [Compound 52, 7-(3-chloropyridin-2-yl)-2-(isobutoxymethyl)-N-[4-(trifluoromethyl)phenyl]-1,8-naphthyridin-4-amine]
COCc1cc(Nc2ccc(C(C)(C)O)cc2)c2ccc(-c3ncccc3Cl)nc2n1 [Compound 53, 2-(4-{[7-(3-chloropyridin-2-yl)-2-(methoxymethyl)-1,8-naphthyridin-4-yl]amino}phenyl)propan-2-ol]
CC(C)COCc1cc(Nc2ccc(F)cc2)c2ccc(-c3ncccc3C(F)(F)F)nc2n1 [Compound 54, N-(4-fluorophenyl)-2-(isobutoxymethyl)-7-[3-(trifluoromethyl)pyridin-2-yl]-1,8-naphthyridin-4-amine]
FC(F)(F)c1ccc(Nc2cc(CN3CCC3)nc3nc(-c4ncccc4C(F)(F)F)ccc23)cc1 [Compound 55, 2-(azetidin-1-ylmethyl)-N-[4-(trifluoromethyl)phenyl]-7-[3-(trifluoromethyl)pyridin-2-yl]-1,8-naphthyridin-4-amine]
CC(=O)c1ccc(Nc2cc(COCC(C)C)nc3nc(-c4ncccc4C(F)(F)F)ccc23)cc1 [Compound 56, 1-[4-({2-(isobutoxymethyl)-7-[3-(trifluoromethyl)pyridin-2-yl]-1,8-naphthyridin-4-yl}amino)phenyl]ethanone]
CC(C)COCc1cc(Nc2ccc(C(C)(C)O)cc2)c2ccc(-c3ncccc3C(F)(F)F)nc2n1 [Compound 57, 2-[4-({2-(isobutoxymethyl)-7-[3-(trifluoromethyl)pyridin-2-yl]-1,8-naphthyridin-4-yl}amino)phenyl]propan-2-ol]
CC(C)NCc1cc(Nc2ccc(C(F)(F)F)cc2)c2ccc(-c3ncccc3C(F)(F)F)nc2n1 [Compound 58, 2-[(isopropylamino)methyl]-N-[4-(trifluoromethyl)phenyl]-7-[3-(trifluoromethyl)pyridin-2-yl]-1,8-naphthyridin-4-amine]
CC(C)CNCc1cc(Nc2ccc(C(F)(F)F)cc2)c2ccc(-c3ncccc3C(F)(F)F)nc2n1 [Compound 59, 2-[(isobutylamino)methyl]-N-[4-(trifluoromethyl)phenyl]-7-[3-(trifluoromethyl)pyridin-2-yl]-1,8-naphthyridin-4-amine]
CC(C)CN(C)Cc1cc(Nc2ccc(C(F)(F)F)cc2)c2ccc(-c3ncccc3C(F)(F)F)nc2n1 [Compound 60, 2-{[isobutyl(methyl)amino]methyl}-N-[4-(trifluoromethyl)phenyl]-7-[3-(trifluoromethyl)pyridin-2-yl]-1,8-naphthyridin-4-amine]
CC(C)COCc1cc(Nc2ccc(Br)cn2)c2ccc(-c3ncccc3C(F)(F)F)nc2n1 [Compound 61, N-(5-bromopyridin-2-yl)-2-(isobutoxymethyl)-7-[3-(trifluoromethyl)pyridin-2-yl]-1,8-naphthyridin-4-amine]
COCc1cc(Nc2ccc(C(F)(F)F)cc2)c2ccc(-c3ncccc3F)nc2n1 [Compound 62, 7-(3-fluoropyridin-2-yl)-2-(methoxymethyl)-N-[4-(trifluoromethyl)phenyl]-1,8-naphthyridin-4-amine]
CC(=O)c1ccc(Nc2cc(COCC(C)C)nc3nc(-c4ncccc4Cl)ccc23)cc1 [Compound 63, 1-(4-{[7-(3-chloropyridin-2-yl)-2-(isobutoxymethyl)-1,8-naphthyridin-4-yl]amino}phenyl)ethanone]
